Results taken from PubChem BioAssay (NCI).
Several values for one entry are separate records, joined by “and”; a condition that tells them apart may be missing. Identical values can stand only once.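 Briefly, cells in 96-well plates were exposed to five compound concentrations for 48 h, and endpoints were estimated by linear interpolation. Abbreviation: GI50, concentration required for 50% inhibition of growth. TGI denotes the concentration required for complete inhibition of growth.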

What follows are compounds tested on SW-620 colon (assay: growth of human tumour cells (NCI), 48 h).
In the case of Cc1cc(N/N=C/c2ccccn2)nc2ccccc12, the GI50 is reported as 0.588 µM and the TGI is reported as 19.6 µM. CC1CC(O)C(=O)C(O[C@@H]2C[C@@H]3CC[C@@H]4[C@H](CC[C@]5(C)C(C6=CC(=O)OC6)CC[C@]45O)[C@@]3(C=O)C[C@H]2O)O1 (stereo not given in full) was tested, and the TGI was 0.158 µM.

Each compound was assayed on SK-OV-3 ovarian (assay: growth of human tumour cells (NCI), 48 h).
In the case of O=C1CCCN1c1ccccc1I(=O)=O, the GI50 is reported as > 100 µM and the TGI is reported as > 100 µM. With COC(=O)C1=COC(C)C2CN3CCc4c([nH]c5ccccc45)C3CC12 (stereo not given) the TGI was > 100 µM. O=C(NCc1ccc(Cn2c(=O)sn(-c3ccccc3)c2=O)cc1)OCc1ccc2cccc(O)c2n1 gave a GI50 of 5.96 µM and a TGI of 18.7 µM. CC(C)c1[nH]nc2c1N=C(c1ccccc1Cl)c1cc([N+](=O)[O-])ccc1N2 was tested, and the GI50 was 10.1 µM and the TGI was > 25 µM. Nc1cc2c(cc1Br)[nH]c(=O)c1ccccc12 was tested, and the GI50 was 10.1 µM and the TGI was 54.1 µM. Compound COc1ccc(-c2nccn2-c2ccc(OC)cc2)cc1 has a GI50 of 22.8 µM and a TGI of 93.6 µM. In the case of O=C(/C=C/c1ccccc1)c1ccccc1, the TGI is reported as > 10 µM. Work on COc1cc2c(/C=N\N=C(N)N)c[nH]c2cc1C yielded a GI50 of 25.8 µM and a TGI of 62.2 µM. For CC(C)[C@H](O)C(=O)N[C@@H](C)C(=O)N[C@@H]1C(=O)N(C)CCc2ccccc21, the GI50 was > 100 µM and the TGI was > 100 µM. With C=CC(=O)N1CN(C(=O)C=C)CN(C(=O)C=C)C1 the GI50 was 26.8 µM and the TGI was > 100 µM. ClC(Cl)=C1C(=C(Cl)Cl)C(Cl)(Cl)C1(Cl)Cl showed a TGI of 28.8 µM. In the case of C#CCOc1cccc(Nc2ncnc3c(NC(=O)C=C)cccc23)c1, the GI50 is reported as 38.2 µM and the TGI is reported as > 100 µM. CO[C@H]1Nc2c(ccc(C)c2O)C(=O)N2C=C(/C=C/C(N)=O)C[C@@H]12 showed a TGI of 3.72 µM. O=C(/C(=C\c1c(-c2ccccc2)[nH]c2ccccc12)S(=O)(=O)c1ccccc1)c1ccccc1 was tested, and the GI50 was 7.63 µM and the TGI was > 100 µM. With CCNC(=O)/C(=C/c1ccc(OC)cc1)c1cc(OC)c(OC)c(OC)c1 the TGI was > 100 µM. Cc1ccc(OCCOCCOCCOCCOc2ccc(C)n(O)c2=S)c(=S)n1O was tested, and the GI50 was 0.0753 µM and the TGI was > 100 µM. In the case of COc1ccc(-c2ccc3c(N4CCOC[C@@H]4C)nc(N4CCOC[C@@H]4C)nc3n2)cc1CO, the GI50 is reported as 0.00324 µM and 0.0138 µM and the TGI is reported as 0.0479 µM and 0.116 µM. N[C@H](CCC(=O)N[C@@H](Cc1c[nH]c2ccccc12)C(=O)O)C(=O)O was tested, and the GI50 was > 100 µM and the TGI was > 100 µM. COc1ccc(-c2nc(-c3cc(OC)cc(OC)c3)[nH]c2-c2ccc(OC)cc2)cc1 was tested, and the GI50 was > 100 µM and the TGI was > 100 µM. CN(C)CCNCCN was tested, and the TGI was > 100 µM. In the case of COC(=O)c1cc2c(o1)-c1nccc3c1c(nc1ccccc13)C2=O, the GI50 is reported as 10.7 µM and the TGI is reported as 39.8 µM. With Nc1ccccc1O.O.O=C(O)C1[O][Sb][O]C1C(=O)O (stereo not given) the GI50 was 88.3 µM and the TGI was > 100 µM. In the case of O=C(c1ccco1)c1c(C(F)(F)F)n([O-])c2ccc(C(F)(F)F)cc2[n+]1=O, the GI50 is reported as 1.12 µM and the TGI is reported as 2.48 µM. With OC(c1cc(-c2ccc(C(F)(F)F)cc2)nc(C(F)(F)F)c1)C1CCCCN1 (stereo not given) the TGI was 4.75 µM and 5.99 µM. With CCCCCCCCCCNC(=O)CI the GI50 was 1.89 µM and the TGI was 3.38 µM. In the case of Cc1cc(N/N=C/c2ccccn2)nc2ccccc12, the GI50 is reported as 0.668 µM and the TGI is reported as 16 µM. Compound CC1CC(O)C(=O)C(O[C@@H]2C[C@@H]3CC[C@@H]4[C@H](CC[C@]5(C)C(C6=CC(=O)OC6)CC[C@]45O)[C@@]3(C=O)C[C@H]2O)O1 (stereo not given in full) has a TGI of 0.122 µM.

Each compound was assayed on HOP-92 NSCLC (assay: growth of human tumour cells (NCI), 48 h).
O=C1CCCN1c1ccccc1I(=O)=O was tested, and the GI50 was > 100 µM and the TGI was > 100 µM. COC(=O)C1=COC(C)C2CN3CCc4c([nH]c5ccccc45)C3CC12 (stereo not given) was tested, and the GI50 was 18.3 µM and > 100 µM and the TGI was 77.4 µM and > 100 µM. Work on O=C(NCc1ccc(Cn2c(=O)sn(-c3ccccc3)c2=O)cc1)OCc1ccc2cccc(O)c2n1 yielded a GI50 of 0.459 µM and a TGI of 1.97 µM. Compound CC(C)c1[nH]nc2c1N=C(c1ccccc1Cl)c1cc([N+](=O)[O-])ccc1N2 has a GI50 of 4 µM and a TGI of 12.6 µM. Nc1cc2c(cc1Br)[nH]c(=O)c1ccccc12 showed a GI50 of 3.81 µM and a TGI of 41.8 µM. With COc1ccc(-c2nccn2-c2ccc(OC)cc2)cc1 the GI50 was 2.45 µM and the TGI was > 41.7 µM. For O=C(/C=C/c1ccccc1)c1ccccc1, the TGI was > 10 µM. CC(C)[C@H](O)C(=O)N[C@@H](C)C(=O)N[C@@H]1C(=O)N(C)CCc2ccccc21 was tested, and the GI50 was > 100 µM and the TGI was > 100 µM. C=CC(=O)N1CN(C(=O)C=C)CN(C(=O)C=C)C1 showed a GI50 of 3.56 µM and a TGI of 13 µM. ClC(Cl)=C1C(=C(Cl)Cl)C(Cl)(Cl)C1(Cl)Cl showed a TGI of 4.5 µM. Compound C#CCOc1cccc(Nc2ncnc3c(NC(=O)C=C)cccc23)c1 has a GI50 of 13.6 µM and a TGI of 42.6 µM. Compound CO[C@H]1Nc2c(ccc(C)c2O)C(=O)N2C=C(/C=C/C(N)=O)C[C@@H]12 has a TGI of 0.217 µM. O=C(/C(=C\c1c(-c2ccccc2)[nH]c2ccccc12)S(=O)(=O)c1ccccc1)c1ccccc1 was tested, and the GI50 was 4.95 µM and the TGI was > 100 µM. In the case of CCNC(=O)/C(=C/c1ccc(OC)cc1)c1cc(OC)c(OC)c(OC)c1, the TGI is reported as > 96.6 µM. For Cc1ccc(OCCOCCOCCOCCOc2ccc(C)n(O)c2=S)c(=S)n1O, the GI50 was 4.78 µM and the TGI was > 90.8 µM. With COc1ccc(-c2ccc3c(N4CCOC[C@@H]4C)nc(N4CCOC[C@@H]4C)nc3n2)cc1CO the GI50 was 0.00134 µM and 0.0105 µM. N[C@H](CCC(=O)N[C@@H](Cc1c[nH]c2ccccc12)C(=O)O)C(=O)O was tested, and the GI50 was > 100 µM and the TGI was > 100 µM. For CN(C)CCNCCN, the TGI was > 100 µM. Work on COC(=O)c1cc2c(o1)-c1nccc3c1c(nc1ccccc13)C2=O yielded a GI50 of 1.96 µM and a TGI of 17.7 µM. Compound Nc1ccccc1O.O.O=C(O)C1[O][Sb][O]C1C(=O)O (stereo not given) has a GI50 of 21 µM and a TGI of 40.2 µM. Compound O=C(c1ccco1)c1c(C(F)(F)F)n([O-])c2ccc(C(F)(F)F)cc2[n+]1=O has a GI50 of 0.28 µM and a TGI of 0.718 µM. For OC(c1cc(-c2ccc(C(F)(F)F)cc2)nc(C(F)(F)F)c1)C1CCCCN1 (stereo not given), the GI50 was 1.06 µM and 2.38 µM and the TGI was 2.47 µM and 9.39 µM. In the case of CCc1ccc2c(c1)C(=O)c1c-2n(CCCN=[N+]=[N-])c(=O)c2cc([N+](=O)[O-])ccc12, the GI50 is reported as > 50 µM and the TGI is reported as > 50 µM.

What follows are compounds tested on NCI-H226 lung (assay: growth of human tumour cells (NCI), 48 h).
In the case of O=C1CCCN1c1ccccc1I(=O)=O, the GI50 is reported as > 100 µM and the TGI is reported as > 100 µM. In the case of COC(=O)C1=COC(C)C2CN3CCc4c([nH]c5ccccc45)C3CC12 (stereo not given), the TGI is reported as 29.4 µM and > 100 µM. Work on O=C(NCc1ccc(Cn2c(=O)sn(-c3ccccc3)c2=O)cc1)OCc1ccc2cccc(O)c2n1 yielded a GI50 of 1.27 µM and a TGI of 2.77 µM. For COC(c1ccc(C(C)(C)C)cc1)(c1ccc(C(C)(C)C)cc1)c1ccc(C(C)(C)C)cc1, the TGI was > 100 µM. In the case of CC(C)c1[nH]nc2c1N=C(c1ccccc1Cl)c1cc([N+](=O)[O-])ccc1N2, the GI50 is reported as 5.09 µM and the TGI is reported as 16.1 µM. In the case of Nc1cc2c(cc1Br)[nH]c(=O)c1ccccc12, the GI50 is reported as 5.15 µM and the TGI is reported as 27.5 µM. In the case of COc1ccc(-c2nccn2-c2ccc(OC)cc2)cc1, the GI50 is reported as 18.6 µM and the TGI is reported as > 70.8 µM. For O=C(/C=C/c1ccccc1)c1ccccc1, the TGI was > 10 µM. COc1cc2c(/C=N\N=C(N)N)c[nH]c2cc1C was tested, and the GI50 was 17.1 µM and the TGI was 71.8 µM. CC(C)[C@H](O)C(=O)N[C@@H](C)C(=O)N[C@@H]1C(=O)N(C)CCc2ccccc21 was tested, and the GI50 was > 100 µM and the TGI was > 100 µM. C=CC(=O)N1CN(C(=O)C=C)CN(C(=O)C=C)C1 was tested, and the GI50 was 5.87 µM and the TGI was > 100 µM. Compound ClC(Cl)=C1C(=C(Cl)Cl)C(Cl)(Cl)C1(Cl)Cl has a GI50 of 0.422 µM and a TGI of 1.89 µM. C#CCOc1cccc(Nc2ncnc3c(NC(=O)C=C)cccc23)c1 showed a GI50 of 25.5 µM and a TGI of 69.1 µM. CO[C@H]1Nc2c(ccc(C)c2O)C(=O)N2C=C(/C=C/C(N)=O)C[C@@H]12 showed a TGI of 0.47 µM. In the case of O=C(/C(=C\c1c(-c2ccccc2)[nH]c2ccccc12)S(=O)(=O)c1ccccc1)c1ccccc1, the GI50 is reported as > 100 µM and the TGI is reported as > 100 µM. For CCNC(=O)/C(=C/c1ccc(OC)cc1)c1cc(OC)c(OC)c(OC)c1, the TGI was 88.7 µM. With Cc1ccc(OCCOCCOCCOCCOc2ccc(C)n(O)c2=S)c(=S)n1O the GI50 was < 0.0291 µM and the TGI was 12.7 µM. COc1ccc(-c2ccc3c(N4CCOC[C@@H]4C)nc(N4CCOC[C@@H]4C)nc3n2)cc1CO was tested, and the GI50 was 0.004 µM and 0.0139 µM and the TGI was 0.186 µM and 0.312 µM.
